In PMC5379642, “Mechanistic Investigations of the Mitochondrial Complex I Inhibitor Rotenone in the Context of Pharmacological and Safety Evaluation” (Scientific Reports, 2017):

Target: T1, complex I (NADH ubiquinone reductase) (Rattus norvegicus, UniProt A6K8N6+P03889+Q641Y2)
T1 construct: gene Ndufs2; native multi-subunit complex in mitochondria isolated from frozen rat liver; with NADH dehydrogenase [ubiquinone] flavoprotein 1, mitochondrial; NADH dehydrogenase [ubiquinone] flavoprotein 2, mitochondrial; NADH-ubiquinone oxidoreductase 75 kDa subunit, mitochondrial; NADH dehydrogenase [ubiquinone] iron-sulfur protein 3, mitochondrial; NADH dehydrogenase [ubiquinone] iron-sulfur protein 8, mitochondrial; NADH-ubiquinone oxidoreductase chain 2; NADH-ubiquinone oxidoreductase chain 3; NADH-ubiquinone oxidoreductase chain 4; NADH-ubiquinone oxidoreductase chain 4L; NADH-ubiquinone oxidoreductase chain 5; NADH-ubiquinone oxidoreductase chain 6
Test: NADH oxidation at […] nm, rotenone-sensitive rate, mitochondria from dosed rats
Conditions: ex vivo after 400 ppm dietary rotenone for 1, 3 or 14 days, no in vitro dose, decylubiquinone, pH 7.2, KCN and antimycin present

T1 sequence (Q641Y2 34-463): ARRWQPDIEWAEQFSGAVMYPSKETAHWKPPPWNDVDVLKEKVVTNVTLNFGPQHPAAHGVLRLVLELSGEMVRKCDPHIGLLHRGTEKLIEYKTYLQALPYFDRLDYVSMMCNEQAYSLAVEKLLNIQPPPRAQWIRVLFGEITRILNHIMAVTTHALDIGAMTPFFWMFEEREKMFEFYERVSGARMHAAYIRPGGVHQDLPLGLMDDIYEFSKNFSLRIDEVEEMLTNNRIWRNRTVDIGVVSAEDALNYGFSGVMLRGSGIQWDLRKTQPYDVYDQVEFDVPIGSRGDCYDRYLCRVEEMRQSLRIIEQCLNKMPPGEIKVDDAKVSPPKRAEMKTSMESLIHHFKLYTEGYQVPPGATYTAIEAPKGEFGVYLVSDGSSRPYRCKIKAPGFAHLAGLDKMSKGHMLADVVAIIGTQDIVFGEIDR
T1 sequence (A6K8N6 39-218): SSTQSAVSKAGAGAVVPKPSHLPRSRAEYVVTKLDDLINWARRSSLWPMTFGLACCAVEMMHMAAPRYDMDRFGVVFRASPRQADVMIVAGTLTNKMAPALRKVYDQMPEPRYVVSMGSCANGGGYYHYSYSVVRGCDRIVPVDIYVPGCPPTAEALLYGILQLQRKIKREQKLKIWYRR
T1 sequence (P03889 whole entry): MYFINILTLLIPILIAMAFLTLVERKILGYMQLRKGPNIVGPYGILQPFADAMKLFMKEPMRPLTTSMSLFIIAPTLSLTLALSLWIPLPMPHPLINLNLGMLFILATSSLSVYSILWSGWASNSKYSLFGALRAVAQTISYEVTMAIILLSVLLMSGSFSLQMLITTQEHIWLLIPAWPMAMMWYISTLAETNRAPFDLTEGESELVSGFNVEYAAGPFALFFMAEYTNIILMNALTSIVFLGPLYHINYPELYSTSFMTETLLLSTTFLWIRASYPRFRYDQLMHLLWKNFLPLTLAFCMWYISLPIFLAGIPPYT
T1 sequence (Q5XIH3 21-464 partner): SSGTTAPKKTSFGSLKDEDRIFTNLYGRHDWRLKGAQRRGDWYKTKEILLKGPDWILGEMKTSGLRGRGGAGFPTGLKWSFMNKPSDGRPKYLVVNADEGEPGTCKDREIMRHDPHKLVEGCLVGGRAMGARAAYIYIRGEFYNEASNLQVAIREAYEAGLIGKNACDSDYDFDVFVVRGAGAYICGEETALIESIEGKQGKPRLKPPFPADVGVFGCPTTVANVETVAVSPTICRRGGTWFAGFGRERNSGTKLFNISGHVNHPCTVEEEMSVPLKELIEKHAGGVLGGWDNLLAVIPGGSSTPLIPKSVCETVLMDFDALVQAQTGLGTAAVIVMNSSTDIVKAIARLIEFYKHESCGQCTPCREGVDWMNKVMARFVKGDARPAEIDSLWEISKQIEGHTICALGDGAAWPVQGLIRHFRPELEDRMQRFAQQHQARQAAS

C=C(C)[C@H]1Cc2c(ccc3c2O[C@@H]2COc4cc(OC)c(OC)cc4[C@@H]2C3=O)O1 [rotenone]
% decrease of complex I activity vs time-matched control: 70–80%
